From patent US5321046A, “Hypocholesterolemic unsymmetrical dithiol ketals” (Bristol-Myers Squibb Company, priority 1992, dated 1994)
Like-named read-outs stand apart in the source and are kept apart here.

What was measured:
[1] = tested on: HepG2 cells; assay: HepG2 Cell Culture Model--14C-Acetate Incorporation Assay (cholesterol biosynthesis); type: cell-based; conditions: Homo sapiens
Method: (a) Isolated Hepatocyte cholesterol biosynthesis assay: HepG2 Cell Culture Model--14C-Acetate Incorporation Assay
HepG2 cells obtained from the American Type Culture Collection were routinely passed in RPMI-1640 plus 10% fetal bovine serum (FBS) and were subculture into 35 mm diameter wells for experiments. […] The LDS medium supplement was prepared according to Cham et al., J. Lipid Res., 17: 176-181, (1976). After about 16 hours in LDS containing media, test compounds were added in dimethylsulfoxide vehicle (0.5% v/v final conc.) for the period of time indicated in the data (generally 4 hours). Cholesterol synthesis was then directly determined by the incorporation of 2-14C-acetate (1.8-3.0 mCi/mmol) into digitonin-precipitable sterols essentially as described for the rat hepatocyte method above. Greater than 97% of the radiolabelled sterol isolated by this procedure was cholesterol as judged by HPLC. Percent inhibition was calculated from the average of duplicates or triplicates vs. controls receiving vehicle.

[2] = tested on: hydroxymethylglutaryl coenzyme A reductase (HMGcoA reductase); assay: HMGCo-A reductase suppression; type: cell-based
[3] = In vivo cholesterol biosynthesis in hamsters (plasma lipids); parameters: species or system hamsters (male F1 B)
Method: (c) In vivo cholesterol biosynthesis in hamsters was assayed using the following protocol: four groups of hamsters (male F1 B, fed 0.5% cholesterol 10% coconut oil), average weight 120-150 gm, were run in parallel (N=10 per group). The animals were initially fed the atherogenic diet for 20 days to determine their pre-drug plasma lipid levels. They were randomized so that each group had the same average plasma total cholesterol. The three of the four groups were started on their respective drug containing diet (day 0), while the remaining group served as controls.

[4] = HepG2, read-out: HEPG2 Sterol biosynthesis inhibition @ 10 μM
[5] = HepG2 cells, 14C-acetate incorporation, generally 4 hours, read-out: HepG2 @ 10 μM (inhibition of cholesterol biosynthesis)
[6] = plasma, Day 0 (pre-drug), atherogenic diet, N=10 per group

Structure (SMILES) | inhibition at 10 µM [1, 4] | inhibition at 10 µM [1, 5] | HMGCo-A reductase suppression @ 10 μM [2] | reduction in LDL-cholesterol over control ([3]; F1 B hamsters, over control) | reduction in overall cholesterol over control ([3]; F1 B hamsters, over control) | LDL Cholesterol, Day 0 [3, 6] | Total cholesterol, Day 0 [3, 6] | LDL Cholesterol, Day 21 ([3]; plasma, Day 21, drug containing diet, control 333 ± 137) | Total cholesterol, Day 21 ([3]; plasma, Day 21, drug containing diet, control 407 ± 144) | down-regulation of HMGcoA reductase (in words) ([2]; in words)
CC(C)=CCCC(C)=CCCC(C)=CCSC(C)(C)Sc1ccc(O)cc1 [Example 11, 4-[[1-Methyl-1-[(3,7,11-trimethyl-2,6,10-dodecatrienyl)thio]ethyl]thio]phenol] | 63% | 63% | 37% | -25% | -18% | 319 ± 89 mg/dL | 399 ± 82 mg/dL | 256 ± 85 mg/dL | 336 ± 90 mg/dL | –
CC(=O)Oc1ccc(SC(C)(C)SCC=C(C)CCC=C(C)CCC=C(C)C)c(C)c1 [Example 15, 3-Methyl-4-[[1-methyl-1-[(3,7,11-trimethyl-2,6,10-dodecatrienyl)thio]ethyl]thio]phenol acetate] | – | 75% | – | – | – | – | – | – | – | –
CCOC(=O)C(C)(SCC=C(C)CCC=C(C)CCC=C(C)C)Sc1cc(C)c(O)c(C)c1 (stereo not drawn) [Example 27, Propanoic Acid, 2-[(4-hydroxy-3,5-dimethylphenyl)thio]-2-[(3,7,11-trimethyl-2,6,10-dodecatrienyl)thio]ethyl ester] | 79% | 79% | 51% | – | – | – | – | – | – | down-regulate the key enzyme in the cholesterol biosynthesis
CC(C)=CCCC(C)=CCCC(C)=CCSC(C)(C)Sc1ccc(F)cc1 [Example 36, 4-Fluoro-1-[[1-methyl-1-[(3,7,11-trimethyl-2,6,10-dodecatrienyl)thio]ethyl]thio]benzene] | – | 20% | – | – | – | – | – | – | – | –
